These results are taken from PMC2967433 (Bioconjugate chemistry, 2010).

As a reminder, the IC50 is the midpoint of a concentration-inhibition curve. High values mean weaker potency, low ones greater potency. For orientation: Kd means the equilibrium constant for the complex coming apart. A lower Kd goes with higher affinity.

Assay [1] deals with T1, FK506 Binding Protein 12 kDa (FKBP12) (Homo sapiens, UniProt P62942). The assay can be described thus: TR-FRET competition with fluorescein-labeled SLF.
Assay [2] deals with T1, FK506 Binding Protein 12 kDa (FKBP12). The assay can be described thus: TR-FRET tracer binding. (In general: Time-resolved FRET reads energy transfer from a long-lived donor to a nearby acceptor.)

T1 sequence (P62942 2-108): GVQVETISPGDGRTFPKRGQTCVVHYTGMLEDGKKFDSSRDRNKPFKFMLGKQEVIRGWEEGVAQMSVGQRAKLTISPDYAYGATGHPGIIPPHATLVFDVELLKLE

For `CCC(C)(C)C(=O)C(=O)N1CCCC[C@H]1C(=O)O[C@H](CCc1ccc(OC)c(OC)c1)c1cccc(OCC(=O)O)c1` [SLF-OH], in assay [1], the 50% inhibitory concentration (IC50) came to 200 nM. The compound SLF-Fl had a Kd in assay [2] of 30 nM.
